Measured values from patent publication US20150352114A1, “MITOTIC KINESIN Eg5 INHIBITING ANTICANCER AGENTS” (THE CLEVELAND CLINIC FOUNDATION, priority 2014, published 2015).

Key:
[1] = test system: matched GSCs and NSTCs; experiment: Long-term viability assay, CellTiter-Glo, 5 days; assay type: cell-based, human; conditions: 3 nM; two matched GSCs and NSTCs
Protocol: (§1) The half maximal effective concentration of ispinesib for acutely dissociated and MACS sorted matched GSCs and NSTCs was determined by plating, in triplicate, 1,000 cells per well of a 96 well plate pre-coated with GelTrex in growth-factor free Neuralbasal media. The next day, cells were exposed to 2-fold increasing concentrations of ispinesib spanning from 0 to 32 nM. Viability was measured at 72 hours using CellTiter-Glo ATP-based assay (Promega, Madison, Wis.) read on a luminometer (Perkin-Elmer, Waltham, Mass.). For long-term viability assays, 500 cells per well were plated in triplicate into 96-well plates as above. The next day, cells were exposed to 3 nM ispinesib or vehicle (DMSO) and viability was measured daily for 5 days using CellTiter-Glo. Day 0 reading were taken immediately after addition of drug or vehicle. SubG1 for GSCs and NSTCs was determined by flow cytometry for propidium iodide and gated as the events below the 2N G1 peak of the resulting histogram. Analysis was done following treatment of 100,000 cells with vehicle or 3 nM ispinesib. Cells were fixed at Day 0 through Day 4 in 100% cold ethanol and simultaneously processed for flow analysis with 20,000 events analyzed per condition.

[2] = test system: GFP-positive tumor cells; experiment: Brain slice culture time-lapse cell migration, PDGF-IRES-GFP retrovirus glioma model; assay type: cell-based, rat; conditions: 200 nM
Protocol: The PDGF-IRES-GFP retrovirus was produced according to well known methods previously described. P3 neonatal Sprague-Dawley rats were anesthetized using hypothermia. Briefly, each pup was carefully wrapped in several layers of gauze and then covered with ice. After 12 minutes, the rat pup's head was placed in a DKI 963 Stereotaxic Alignment Instrument (David Kopf Instruments, Tujunga, Calif.). The bregma was identified and using a sterile 18 gauge needle a small hole was poked into the skull that was 1 mm rostral and 2 mm to the right of the bregma. A 27-gauge Hamilton microsyringe (Reno, Nev.) was then inserted to a depth of 1.5 mm, and 2 ul of virus was injected at a rate of 0.2 ul/min.
At days P8, P9, and P10, PDGF-IRES-GFP injected rat pups were anesthetized with Ketamine/Xylazine cocktail and decapitated. Brains were isolated and 300-um coronal sections were taken in the vicinity of the injection site using a McIlwain tissue chopper. The slices were transferred onto a porous 0.4-um culture plate insert (Millipore, Billerica, Mass.) and then placed into Glass Bottom 6 well plates (P06G-0-20-F, MatTek Corp, Ashland, Mass.) containing slice culture media (MEM, 2 mM L-glutamine, […], 10% Glucose, Its (Sigma, 12521) and Anti-Anti (Gibco, 15240-062)). Microglial and perivascular cells of the brain sections were stained with Isolectin GS-IB4, Alexa fluor 594 conjugate (Invitrogen) for 30 minutes at 37° C., washed three times with PBS and returned to a humidified atmosphere at 5% (CO2). Images of the brain slices for time-lapse microscopy were acquired with a Perkin Elmer UltraView Spinning Disk microscope on a Leica DMI 6000 with a 10× Plan Apo 0.4 NA objective lens. During imaging, the brain slices were placed in a stage mounted 37° C. incubator where 60% humidity and 5% CO2 was maintained. The emission range for 488 and 561 is […] and 580-650, respectively and acquisition and analysis were performed using Velocity software. The migratory path of the individual cells was then tracked every 7 minutes by marking the position of the cell body at consecutive time points.
Fluorescence, time-lapse image stacks consisting of ˜150 frames (7 minute intervals) were imported into Image-Pro Plus (v7.0, Media Cybernetics, Silver Spring, Md.). Gliomal cell tracking for each treatment group (55 cells/group) was performed in a semi-automated fashion using a combination of Fourier correlation and user-guided input. Cells selected for tracking were chosen randomly from the periphery of the tumor mass in each image stack. X and Y coordinates from each cell track were exported to Excel and translated such that each cell's track originated from a common origin (0,0). […] Mean-squared displacement for tracked cells in each group was analyzed using a persistent random-walk model (1,2). Speed (um/s) and persistence (min) were extracted using a non-linear least-squared regression to the model equation for each track and averaged for each treatment group.

[3] = test system: 08-387 GSCs; experiment: Cytoskeleton Phospho Antibody Array; assay type: cell-based, human; conditions: 200 nM; 7 hours
Protocol: 08-387 GSCs were enriched in G1 as described. Cells were then exposed to vehicle or ispinesib (200 nM) for 7 hours. Following treatment, cells were pelleted and snap frozen in liquid nitrogen before shipping to Full Moon Biosystems for processing to probe a Cytoskeleton Phospho Antibody Array containing 141 highly specific cytoskeleton related antibodies (Sunnyvale, Calif.).

[4] = test system: glioblastoma stem cells (GSCs); experiment: Dose response cell viability, CellTiter-Glo ATP-based assay, GSCs; conditions: Homo sapiens, 0 to 32 nM, 72 hours
Source text: Human tissues were acquired from primary human brain tumor patient specimens in accordance with appropriate approved Institutional Review Board protocols. Tumor grade and available cytogenetic information for each specimen has been previously described. Tumor specimens were maintained through subcutaneous xenografts in the flanks of athymic Nu/Nu or NSG mice. Tumors were dissociated using a papain dissociation system (Worthington Biochemical, Lakewood, N.J.). […]
as §1, with “The next day, cells were exposed to 2-fold increasing concentrations of ispinesib spanning from 0 to 32 nM.” left out, “For long-term viability assays, 500 cells per well were plated in triplicate into 96-well plates as above.” left out, “Analysis was done following treatment of 100,000 cells with vehicle or 3 nM ispinesib.” left out

[5] = test system: 08-387 GSCs; experiment: Nascent process analysis; assay type: cell-based, human; conditions: 200 nM; 6-hour time course; p<0.0001
Protocol: 08-387 GSCs enriched in interphase were seeded at 6,000 cells per well of a 6 well plate and allowed to adhere for 1 hour. Cells were then exposed to vehicle or 200 nM ispinesib and images recorded over a 6-hour period using the IncuCyte ZOOM (Essen Biosciences, Ann Arbor, Mich.). Process formation was measured using CellPlayer NeuroTrack Software Module (Essen Biosciences).

[6] = test system: cell lines; conditions: cited from earlier work
[7] = Persistent Random Walk model fit

In the case of `Cc1ccc(C(=O)N(CCCN)[C@@H](c2nc3cc(Cl)ccc3c(=O)n2Cc2ccccc2)C(C)C)cc1` [ispinesib, N-(3-amino-propyl)-n-[R-1-(3-benzyl-7-choloro-4-oxo-3,4-dihydroquinazolin-2-yl)-2-methyl-propyl]-4-methyl-benzamide methanesulfonate], the “cell viability over five-day time course” value [1] is reported as “Both populations demonstrated sensitivity”, the “tumor dispersion (Wind Rose plots, MSD)” value [2] is reported as “clear reduction in tumor dispersion” and the “reduction in mean squared displacement” value ([2]; versus control) is reported as “approximately four-fold”. For the same compound, the “reduction of cell velocity” value ([2]; versus control) was “approximately two-fold”, the cell velocity [2, 7] was 11.3±0.2 μm/hr and the persistence time [2, 7] was 2.3 ± 0.1 h. For the same compound, the “phosphorylation of 141 cytoskeleton proteins” value [3] was “no significant changes in phosphorylation”, the EC50 [4] was 1.15 ± 0.35 nM and the “process length in GSCs” value [5] was “appreciably attenuated”. The “efficacy in cell lines tested” value [6] was “nanomolar efficacy”.
